Laboratory results: US6635265B1, “Materials and methods useful for the control of insect larvae” (University of Florida Research Foundation, Inc., priority 1999, dated 2003)

Experiments:
[1] = system: first instar larvae S. exigua; test: Inhibition of Spodoptera exigua larval growth by feeding of TMOF; type: in vivo
Procedure: The x-axis represents the TMOF concentration and the y-axis represents percentage of growth inhibition.
Individual, first instar larvae S. exigua were maintained in separate petri dishes and were fed on artificial diet blocks of 50 mg on which different concentrations of TMOF (0 to 100 μg) were adsorbed. Larvae were fed for 6 days and larval length was measured every 24 hours and compared with controls that were not fed TMOF. Each experiment was repeated 10 times.

mosquito larvae = test: Feeding TMOF and its analogue peptides to mosquito larvae (LD50); type: in vivo, Aedes aegypti; conditions: 100 μl microtiter plates, 7 days, diet of autoclaved yeast (1 mg/ml)
From the text: TMOF can traverse the gut epithelium, enter the hemolymph and bind a gut receptor (Borovsky, D. and F. Mahmood (1995) “Feeding the mosquito Aedes aegypti with TMOF and its analogs; effect on trypsin biosynthesis and egg development,” Regulatory Peptides 57:273-281.; Borovsky, D., C. A. Powell, J. K. Nayar, J. E. Blalock, and T. K. Hayes (1994) “Characterization and localization of mosquito-gut receptors for trypsin modulating oostatic factor using complementary peptide immunochemistry” FASEB J. 8:350-355.). […] This characteristic permits testing of TMOF and its analogs by feeding them to mosquito and other pest larvae. To determine whether truncated TMOF peptides have an effect on larval growth and development, a series of peptides were synthesized and tested by feeding them to mosquito larvae at concentrations of 0.5 to 5.0 mg/ml (Table 1). Individual, newly hatched Aedes aegypti larvae were maintained in separate microtiter wells on a diet of autoclaved yeast (1 mg/ml). The diet was supplemented with TMOF peptides (Table 1). An identical number of larvae which were maintained on yeast served as a control. […] All control groups survived and larval growth and development was normal. Since larvae swallow only a small portion of the yeast particles that adsorbed the peptides, it is assumed that approximately 1 to 20 ng are taken orally at the high concentrations.

trypsin biosynthesis [2] = test: Injecting TMOF-R analogues into second instar Heliothis virescens: trypsin biosynthesis (BApNA); type: in vivo; conditions: second instar larvae, 24 hours after injection
Procedure: TMOF analogues (5 to 8 amino acids in length, and polymers of these analogues) in which Arg was added at the C-terminus were evaluated to determine their effect on larval growth and development. A series of analogues were synthesized and tested by feeding them to mosquito larvae at concentrations of (0.5 to 5.0 mg/ml; Table 4). Concentrations of 2.0 to 0.065 mg/ml were used to feed mosquito larvae and calculate the Lethal Dose at 50% mortality (LD50; Table 4) of the TMOF analogues. […] In both cases larval death and trypsin biosynthesis inhibition was noted (Table 4 and 5). […] The advantage of using short analogues connected by Arg is that they can be digested in the gut into short TMOF analogues that can penetrate the midgut much faster than longer analogues.
Individual second instar larvae of H. virescens were injected with TMOF-R analogues (10 to 0.25 μg per larva) and maintained in separate plastic cups on artificial diet. Twenty-four hours after the injections 3 groups of larvae (3 per group) were assayed for trypsin biosynthesis using BApNA (trypsin specific substrate; Table 5).

[3] = system: first instar H. virescens larvae; test: Feeding of first instar H. virescens on TMOF analogs for 14 days; type: in vivo, Heliothis virescens; conditions: first instar larvae fed individually 1.6 µg of TMOF analogs for 14 days
trypsin biosynthesis [4] = test: Feeding TMOF analogs to fourth instar H. virescens: gut trypsin biosynthesis ([3H]DFP); type: in vivo, Heliothis virescens; conditions: guts of fourth instar larvae after 5 days feeding on 0.8 mg of TMOF analogs
Procedure: (§1) Larvae were fed for 5 to 14 days and larval weight and trypsin activity were measured at the end of the experimental periods. […] When first instar larvae were fed for 14 days on analogs 15 and 16 (Table 4), an 18% and 26% reduction in weight was observed.

[5] = system: fourth instar Heliothis virescens; test: Feeding TMOF analogs to fourth instar H. virescens: larval weight; type: in vivo
Procedure: In both cases a reduction in weight gain and trypsin inhibition was noted (Tables 3 and 4).
as §1

[6] = fourth instar larvae fed synthetic food and 0.8 mg of TMOF analogs for 5 days

| Substance | larval growth (larval length) compared with controls ([1]; first instar S. exigua fed TMOF (0 to 100 μg) adsorbed on 50 mg artificial diet blocks for 6 days) | amount of TMOF fed at which maximum growth inhibition occurred ([1]; first instar S. exigua, 50 mg diet blocks, 6 days) [µg] | LD50 mM ± S.E.M. (mosquito larvae) | Inhibition (% ± S.E.M.) of trypsin biosynthesis (trypsin biosynthesis [2]; 0.25 μg/injection) [%] | Inhibition (% ± S.E.M.) of trypsin biosynthesis (trypsin biosynthesis [2]; 0.5 μg/injection) [%] | Inhibition (% ± S.E.M.) of trypsin biosynthesis (trypsin biosynthesis [2]; 1 μg/injection) [%] | Inhibition (% ± S.E.M.) of trypsin biosynthesis (trypsin biosynthesis [2]; 10 μg/injection) [%] | Number of Dead Larvae [3] | Weight (mg) ± S.E.M. [3] [mg] | Weight Reduction (%) ± S.E.M. [3] [%] | Inhibition (% ± S.E.M.) of trypsin biosynthesis (trypsin biosynthesis [4]) [%] | Trypsin μg ± S.E.M. (trypsin biosynthesis [4]) [µg] | larval weight and trypsin biosynthesis (in words) ([5]; fourth instar larvae fed TMOF analog peptides for 5 days) | Weight Gain [5, 6] [mg] | Weight mg ± S.E.M. End [5, 6] [mg] |
| --- | --- | --- | --- | --- | --- | --- | --- | --- | --- | --- | --- | --- | --- | --- | --- |
| YDPAP6 (YDPAPPPPPP; listed as Aedes aegypti) [reference compound] | did not grow as fast as the controls | 100 | 3 0.2 ± 0.02 mM | 19.5 ± 0.7 | 11 ± 1 | 25 ± 2 | 56 | – | – | – | – | – | – | – | – |
| YSPAP (TMOF peptide) [54] | – | – | 3 1.4 ± 0.03 mM | – | – | – | – | 0 | 168 ± 11 | 0 | 19 ± 2 | 2.0 ± 0.2 | Reductions in larval weight and trypsin biosynthesis were observed | 151 | 188 ± 10.6 |
